We go through one compound from patent US7202267B2, “Acyloxypyrrolidine derivatives, preparation thereof and application thereof in therapeutic” (Sanofi-aventis, priority 2002, dated 2007).

The target in one assay is T1, human V1b receptors (Homo sapiens, UniProt P47901).
T1 construct: host or cells: cellular or adenohypophyseal membrane preparations
T1 sequence (P47901 1-424): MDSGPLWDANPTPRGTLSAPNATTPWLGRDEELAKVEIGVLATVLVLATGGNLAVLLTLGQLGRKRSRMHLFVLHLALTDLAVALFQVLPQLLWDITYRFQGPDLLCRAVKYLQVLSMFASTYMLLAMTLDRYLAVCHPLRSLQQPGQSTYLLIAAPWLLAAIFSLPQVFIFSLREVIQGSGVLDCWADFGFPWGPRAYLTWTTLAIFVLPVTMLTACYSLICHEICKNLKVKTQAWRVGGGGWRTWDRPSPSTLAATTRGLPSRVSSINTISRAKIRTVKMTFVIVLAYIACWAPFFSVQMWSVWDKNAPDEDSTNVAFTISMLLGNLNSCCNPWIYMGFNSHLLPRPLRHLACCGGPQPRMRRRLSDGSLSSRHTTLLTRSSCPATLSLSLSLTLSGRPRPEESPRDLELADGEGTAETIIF
Nature of the assay: Displacement of [3H]-AVP binding to human V1b receptors. To be noted: cellular or adenohypophyseal membrane preparations. As to the method:
The affinity of the compounds of formula (I) according to the invention, for V1b receptors for arginine-vasopressin, was determined in vitro using the method described by Y. DE KEYSER et al., Febs Letters, 1994, 356, 215–220. This method consists in studying, in vitro, the displacement of […] arginine-vasopressin ([^3H]-AVP) to V1b receptors present on cellular or adenohypophyseal membrane preparations bearing rat or human V1b receptors.

Another assay addresses T2, human V1a receptors (Homo sapiens, UniProt P37288).
T2 construct: host or cells: cellular or membrane preparations
As to the kind of experiment: Displacement of [3H]-AVP binding to human V1a receptors. To be noted: cellular or membrane preparations. The procedure:
The affinity of the compounds of formula (I) according to the invention, for V1a receptors for arginine-vasopressin, was determined in vitro using the method described by M. THIBONNIER et al., J. Biol. Chem., 1994, 269, 3304–3310. This method consists in studying, in vitro, the displacement of […] arginine-vasopressin ([^3H]-AVP) to V1a receptors present on cellular or membrane preparations bearing rat or human V1a receptors.

T2 sequence (P37288 whole entry): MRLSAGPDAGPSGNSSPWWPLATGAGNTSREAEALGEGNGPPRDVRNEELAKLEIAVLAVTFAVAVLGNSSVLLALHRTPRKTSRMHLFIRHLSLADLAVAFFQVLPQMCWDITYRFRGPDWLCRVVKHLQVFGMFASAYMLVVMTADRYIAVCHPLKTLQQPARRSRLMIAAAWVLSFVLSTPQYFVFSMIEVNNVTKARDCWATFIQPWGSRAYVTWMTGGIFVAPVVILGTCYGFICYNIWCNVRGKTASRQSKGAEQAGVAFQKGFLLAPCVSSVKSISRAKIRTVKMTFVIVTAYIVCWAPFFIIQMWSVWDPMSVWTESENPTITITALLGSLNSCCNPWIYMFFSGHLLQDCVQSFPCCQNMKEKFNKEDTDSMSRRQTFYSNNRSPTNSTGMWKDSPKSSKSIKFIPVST

`COc1ccc(S(=O)(=O)N2C(=O)[C@@](c3ccccc3OC)(N3C[C@H](OC(C)=O)C[C@H]3C(=O)N(C)C)c3cc(Cl)ccc32)c(OC)c1` [Example 1, (3R,5S)-1-[(3R)-5-chloro-1-[(2,4-dimethoxyphenyl)sulfonyl]-3-(2-methoxyphenyl)-2-oxo-2,3-dihydro-1H-indol-3-yl]-5-[(dimethylamino)carbonyl]-3-pyrrolidinyl acetate]: the values for the IC50 at human V1b receptors and on human V1a receptors were 3.4 nM and 84 nM, respectively.
